Reference: patent US20230145823A1 (priority 2020, published 2023)
Like-named read-outs stand apart in the source and are kept apart here.

Key:
[1] = test system: NO; assay type: cell-based; conditions: RAW264.7 cells, LPS, 25 μM furosemide, 24 h
[2] = test system: TNF-α; assay type: cell-based; conditions: RAW264.7 cells, LPS, 25 μM furosemide, 24 h
[3] = test system: TLR4; test: LPS-induced TLR4 expression in RAW264.7 macrophage cells, flow cytometry; assay type: cell-based; conditions: RAW264.7 cells stimulated with LPS
Procedure: RAW264.7 cells were purchased from ATCC and maintained in Dulbecco's Modified Eagle's Medium (DMEM) containing foetal bovine serum (FBS) at a final concentration of 10%. RAW264.7 cells were seeded in 12-well plates at 0.25×10^6 cells/well seeding density, one day before experiments. […]; conditioned media and lysates were harvested for analysis.
Cells were harvested and re-suspended with staining buffer. Cells were stained with antibody (1:100) by incubating at 4° C. for 30 min in the dark. Stained cells were centrifuged, and the supernatant was discarded. The cell pellets were then re-suspended in cell flow buffer, transferred to FACS tubes and analyzed by flow cytometry within 48 h. To all cells in the experiment, Fc blocker was added.
LPS is recognized by the cell surface pattern-recognition receptors such as the toll-like receptor 4 protein (TLR4) and triggers downstream signaling pathways. LPS induces expression of the pro-inflammatory cytokine IFNγ. IFNγ is known to increase TLR4 expression which may then promote the response to LPS stimulation. […]

[4] = test system: pro-IL-1β; test: pro-IL-1β expression in differentiated THP-1 macrophages, Western blot; assay type: cell-based; conditions: PMA-differentiated THP-1 cells, LPS/IFNγ, 48 h
Procedure: (§1) THP-1 cells (ATCC) were maintained in RPMI 1,640 medium supplemented with 2-mercaptoethanol at a final concentration of 0.05 mM and FBS at a final concentration of 10%. THP-1 cells were seeded in each well of a 12-well tissue culture plate at a density 0.5×10^6 cells/mL, one day before experiments. THP-1 monocytes were differentiated by 150 nM PMA (phorbol 12-myristate 13-acetate) for 24 h.
Cells were washed twice with ice-cold PBS and harvested in RIPA buffer supplemented with a protease inhibitor cocktail. The whole-cell extracts were then centrifuged at 22,000×g for 20 min at 4° C. to remove cell debris. Protein concentrations were quantified using a Micro BCA protein assay kit. The absorbance was measured at 595 nm using a microplate reader. Equal amounts of cellular protein were separated by sodium dodecyl sulfate-polyacrylamide gel electrophoresis (SDS-PAGE) and transferred onto polyvinylidene difluoride (PVDF) membranes at 100 V for 90 min. The SDS-PAGE was performed with 10% polyacrylamide gel for iNOS and 12.5% for pro-IL-1β. The membranes were blocked for 1 h in Tris-buffered saline (TBS), pH 7.4, with 0.1% Tween-20 (TBS-T) containing 10% skim milk. […]

[5] = test system: NO; test: LPS-induced NO production from SIM-A9 cells, Griess assay; assay type: cell-based; conditions: SIM-A9 cells stimulated with LPS
Procedure: Nitric oxide production from the conditioned media of RAW264.7 and SIM-A9 cell cultures was examined by a Griess assay. Conditioned medium and sulfanilamide were mixed in a microwell plate to form a transient diazonium salt. Then, N-naphtyl-ethylenediamine was added to all wells to form a stable azo compound by incubating for 5-10 min in the dark at room temperature. The absorbance was measured between 520 nm and 550 nm. The concentration of NO production was quantified by being plotted against a standard curve.
(§2) SIM-A9 (ATCC) cells were maintained in Dulbecco's modified eagle medium: nutrient mixture F-12 (DMEM-F12) with 10% foetal bovine serum, 5% horse-serum and antibiotic-antimycotic. SIM-A9 cells were seeded 24 h before the experiment. Culturing medium was replaced with DMEM-F12 medium containing 5% FBS+2.5% horse serum with required LPS concentration (final volume was one mL/well). The conditioned media and lysates were harvested for cytokine and cell marker examination.
. IL-1β plays a key role in modulating inflammatory response as a downstream pro-inflammatory marker of the TLR4 signaling pathway by using differentiated THP-1 monocytes. The expression of IL-1β precursor protein (pro-IL-1β) from THP-1 macrophage cells was studied using Western blot analysis. […]. […]

[6] = test system: IL-6; test: LPS-induced IL-6 production from SIM-A9 cells, ELISA; assay type: cell-based; conditions: SIM-A9 cells stimulated with LPS
Procedure: (§3) Cytokines were quantified using ELISA kits following the manufacturer's instructions. Briefly, the high-binding plates were coated at 100 μL/well with diluted capture antibodies (1:250) at 4° C. overnight. The coated plates were then blocked with the diluent for 1 h before assay. Each sample was diluted accordingly and added to the plates for a 2 h incubation period at room temperature. Plates were then washed with 250 μL/well PBS with 0.05% Tween-20 and incubated with detection antibodies (1:250 in assay diluent) for 1 h at room temperature. After another washing step, 1:250 diluted avidin-HRP (horseradish peroxidase) was added and incubated for 30 min. Next, 100 μL TMB-substrate (3,3′,5,5′-tetramethylbenzidine) was added and the plate was incubated in the dark until the signal was sufficiently developed. […]. Absorbance was measured at 450 nm with a correction of 570 nm using a plate reader.
as §2
. […]

[7] = test system: TNF-α; test: LPS-induced TNF-α production from SIM-A9 cells, ELISA; assay type: cell-based; conditions: SIM-A9 cells stimulated with LPS
Procedure: as §3, §2
. […]

[8] = test system: IL-4; test: IL-4 in conditioned medium of differentiated THP-1 cells, Multiplex assay using flow cytometry; assay type: cell-based; conditions: LPS and IFNγ, 48 h
Procedure: as §1
(§4) . The levels of anti-inflammatory cytokines from the conditioned medium of differentiated THP-1 cells were measured after 48 h of stimulation with LPS and IFNγ by Multiplex assay using flow cytometry. […]

[9] = test system: interleukin-1 receptor antagonist (IL-1RA); test: IL-1RA in conditioned medium of differentiated THP-1 cells, Multiplex assay using flow cytometry; assay type: cell-based; conditions: LPS and IFNγ, 48 h
Procedure: as §1
The levels of anti-inflammatory cytokines from the conditioned medium of differentiated THP-1 cells were measured after 48 h of stimulation with LPS and IFNγ by Multiplex assay using flow cytometry.

[10] = test system: arginase; test: Arginase in conditioned medium of differentiated THP-1 cells, Multiplex assay using flow cytometry; assay type: cell-based; conditions: LPS and IFNγ, 48 h
Procedure: as §1, §4

[11] = test system: inducible nitric oxide synthase (iNOS); conditions: RAW264.7, LPS+IFNγ, 25 μM furosemide, 24 h
Procedure: Cells were washed twice with ice-cold PBS and harvested in RIPA buffer supplemented with a protease inhibitor cocktail. The whole-cell extracts were then centrifuged at 22,000×g for 20 min at 4° C. to remove cell debris. Protein concentrations were quantified using a Micro BCA protein assay kit. The absorbance was measured at 595 nm using a microplate reader. Equal amounts of cellular protein were separated by sodium dodecyl sulfate-polyacrylamide gel electrophoresis (SDS-PAGE) and transferred onto polyvinylidene difluoride (PVDF) membranes at 100 V for 90 min. The SDS-PAGE was performed with 10% polyacrylamide gel for iNOS and 12.5% for pro-IL-1β. The membranes were blocked for 1 h in Tris-buffered saline (TBS), pH 7.4, with 0.1% Tween-20 (TBS-T) containing 10% skim milk. The membrane blot was then incubated overnight at 4° C. with primary antibodies against iNOS (1:1,000), IL-1(3 (1:1,000), actin (1:5,000) and GAPDH (1:5,000) in TBS-T containing 5% skim milk. The membrane was washed with TBS-T 3×10 mins and incubated with goat anti-rabbit IgG-horseradish peroxidase (1:5,000) for 1 hour. After the washing step, the immunoblotting was visualized by chemiluminescence HRP-substrate.

[12] = cited from earlier work
[13] = previous studies; cited from earlier work
[14] = cited from earlier work; remark: listed apart in the source
[15] = test system: COVID-19; conditions: cited from earlier work
[16] = Grogono et al. 2018, nebulized 40 mg in 4 mL 0.9% saline, healthy adults, multiple dosing per day
[17] = 21 patients with severe COVID-19, within a few days
[18] = 21 patients with severe COVID-19

Compound: NS(=O)(=O)c1cc(C(=O)O)c(NCc2ccco2)cc1Cl [furosemide, 4-chloro-N-furfuryl-5-sulfamoylanthranilic acid]
- production of NO [1]: significantly decreased
- production of NO ([1]; listed as Furosemide): decreases
- production of TNF-α [2]: significantly decreased
- production of TNF-α ([2]; listed as Furosemide): decreases
- LPS-induced TLR4 expression (TLR4+ cell population) [3]: completely blocked
- LPS-induced TLR4 expression (TLR4+ cell population) ([3]; listed as Furosemide): significantly decreases
- expression of pro-IL-1β [4]: significantly decreases
- production of NO [5]: significantly reduced
- production of IL-6 [6]: significantly reduced
- production of TNF-α [7]: significantly reduced
- expression of IL-4 [8]: induces
- expression of IL-1RA [9]: induces
- expression of arginase [10]: induces
- expression of iNOS [11]: suppress
- solution concentration achievable ([12]; non-salt furosemide, aqueous isotonic saline, pH between 8.0 and 9.3): 10 mg/mL
- solution concentration achievable ([12]; weakly basic buffer solution (pH 8)): 10 mg/mL
- time to be shuttled from the lung and excreted [13]: 4 to 6 h
- relief of experimentally induced air hunger [14, 16]: effective relief
- untoward effects [14, 16]: no untoward effects
- dose shown safe by inhalation ([14]; inhalation, previous studies): up to 120 mg per dose
- lung IL-6, IL-8, and TNF-α levels ([14]; inhaled furosemide, patients with respiratory conditions): reduction
- urge to urinate ([14]; patients receiving inhaled furosemide up to 40 mg): no increase

Compound: tocilizumab: Roche's tocilizumab (Actemra), an IL-6 inhibitor
- all other symptoms [15, 17]: improved remarkably
- fevers [15, 17]: returned to normal
- adverse reactions [15, 18]: no obvious adverse reactions
- patients who lowered their oxygen intake [15, 18]: 75%
- average time to discharge following treatment ([15]; nineteen discharged patients): 13.5 days
